The source made the active and inactive calls. The rule behind the calls is not given here.
How the values were obtained:
J774 [1] = experiment: Effect on Phorbol 12-myristate 13-acetate-induced macropinocytosis in mouse J774 macrophage cells at 20 uM by video microscopy; format: functional, cell-based
J774 [2] = experiment: Effect on Phorbol 12-myristate 13-acetate-induced cellular morphology in mouse J774 macrophage cells at 20 uM by video microscopy; format: functional, cell-based
J774 [3] = experiment: Effect on Phorbol 12-myristate 13-acetate-induced membrane ruffling in mouse J774 macrophage cells at 20 uM by video microscopy; format: functional, cell-based
[4] = biological target: Serine/threonine-protein kinase PknG (Mycobacterium tuberculosis) (UniProt P9WI73); experiment: Inhibition of Mycobacterium tuberculosis Protein kinase G by radiometric ATP consumptive assay
Chain of Serine/threonine-protein kinase PknG (Mycobacterium tuberculosis) (P9WI73 whole entry): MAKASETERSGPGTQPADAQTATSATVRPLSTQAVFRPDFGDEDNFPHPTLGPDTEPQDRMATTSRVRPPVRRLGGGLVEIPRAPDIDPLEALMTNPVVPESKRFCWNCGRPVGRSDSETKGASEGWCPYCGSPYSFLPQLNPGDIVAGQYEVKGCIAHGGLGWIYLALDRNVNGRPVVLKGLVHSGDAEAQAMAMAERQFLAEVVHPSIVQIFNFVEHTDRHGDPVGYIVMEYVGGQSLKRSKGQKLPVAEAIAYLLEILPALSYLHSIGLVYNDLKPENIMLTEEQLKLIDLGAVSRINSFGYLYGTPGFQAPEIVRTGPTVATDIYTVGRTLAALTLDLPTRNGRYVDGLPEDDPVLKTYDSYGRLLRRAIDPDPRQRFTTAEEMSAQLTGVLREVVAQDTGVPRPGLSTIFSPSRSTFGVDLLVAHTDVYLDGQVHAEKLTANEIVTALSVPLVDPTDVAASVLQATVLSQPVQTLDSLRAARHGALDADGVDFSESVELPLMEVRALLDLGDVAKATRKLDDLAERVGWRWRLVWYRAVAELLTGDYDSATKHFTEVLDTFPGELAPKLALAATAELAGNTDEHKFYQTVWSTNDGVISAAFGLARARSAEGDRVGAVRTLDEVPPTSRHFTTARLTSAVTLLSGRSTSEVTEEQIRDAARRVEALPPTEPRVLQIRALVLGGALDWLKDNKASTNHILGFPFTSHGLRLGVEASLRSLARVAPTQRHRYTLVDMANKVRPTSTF

Question: What does the source list for NC(=O)c1c(NC(=O)C2CC2)sc2c1CCCC2?
Answer: Activity (J774 [1]): inactive; Activity (J774 [2]): inactive; Activity (J774 [3]): inactive; Activity [4]: Active
